Where “and” joins values, the source holds several entries; their conditions need not be identical. Equal values may be shown once.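 Method: 48-hour compound exposure of cells in 96-well plates, five concentrations, linear interpolation of endpoints. GI50 = concentration required for 50% inhibition of growth. TGI: concentration producing complete growth inhibition.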
Tests used:
Test in all cases: NCI anticancer screen, dose series, 48 h
HOP-62 NSCLC = system: HOP-62 NSCLC
PC-3 prostate = system: PC-3 prostate
MALME-3M melanoma = system: MALME-3M melanoma
A498 renal = system: A498 renal
HCC-2998 colon = system: HCC-2998 colon
SF-268 CNS = system: SF-268 CNS
786-0 renal = system: 786-0 renal
LXFL 529 NSCLC = system: LXFL 529 NSCLC
KM20L2 colon = system: KM20L2 colon
M19-MEL melanoma = system: M19-MEL melanoma

| Structure (SMILES) | GI50 (HOP-62 NSCLC) | TGI (HOP-62 NSCLC) | GI50 (PC-3 prostate) | TGI (PC-3 prostate) [µM] | GI50 (MALME-3M melanoma) [µM] | TGI (MALME-3M melanoma) [µM] | GI50 (A498 renal) | TGI (A498 renal) | GI50 (HCC-2998 colon) [µM] | TGI (HCC-2998 colon) [µM] | GI50 (SF-268 CNS) | TGI (SF-268 CNS) [µM] | GI50 (786-0 renal) | TGI (786-0 renal) | TGI (LXFL 529 NSCLC) [µM] | TGI (KM20L2 colon) [µM] | TGI (M19-MEL melanoma) [µM] |
| --- | --- | --- | --- | --- | --- | --- | --- | --- | --- | --- | --- | --- | --- | --- | --- | --- | --- |
| C[n+]1ccc(-c2c3nc(c(-c4ccc5c(ccc[n+]5C)c4)c4ccc([nH]4)c(-c4cc[n+](C)cc4)c4nc(c(-c5ccc6c(ccc[n+]6C)c5)c5ccc2[nH]5)C=C4)C=C3)cc1 | 13.3 µM | > 50 µM | 49.5 µM | > 50 | > 50 | > 50 | 27.2 µM | > 50 µM | 49.7 | > 50 | > 50 µM | > 50 | > 50 µM | > 50 µM | – | – | – |
| NC[C@@](O)(c1ccc(Cl)cc1)c1ccc(-c2cn[nH]c2)cc1 | 2.04 µM and 0.89 µM | > 100 µM | 3.89 µM and 2.19 µM | > 100 | 1.57 | 3.08 | 0.438 µM and 0.313 µM | > 23.5 µM and 7.45 µM | > 100 | > 100 | 1.24 µM and 1.28 µM | > 100 | 0.341 µM and 0.473 µM | 10.6 µM and 2.2 µM | – | – | – |
| O=C(Nc1ccc(Br)cc1F)c1cc(Br)ccc1O | 1.45 µM | 6.36 µM | 2.06 µM | 7.69 | 0.32 | 1.82 | 0.246 µM | 1.12 µM | 2.87 | 10.8 | 0.716 µM | 11.6 | 1.66 µM | 6.26 µM | – | – | – |
| O=c1/c(=C/c2ccc3c(c2)OCO3)sc2nnc(-c3ccco3)n12 | – | > 100 µM | – | – | – | > 100 | – | > 100 µM | – | > 100 | – | > 100 | – | > 100 µM | > 100 | > 100 | > 100 |
| CCN1CCN(C(=O)[C@]23CCC(C)(C)C[C@@H]2C2=CC[C@@H]4[C@@]5(C)C/C(=C/c6cccnc6)C(=O)C(C)(C)[C@@H]5CC[C@@]4(C)[C@]2(C)CC3)CC1 | 1.88 µM | 3.75 µM | 1 µM | 2.79 | 1.53 | 2.91 | 1.66 µM | 3.53 µM | 1.58 | 3.12 | 1.59 µM | 4.79 | 1.6 µM | 3.08 µM | – | – | – |
| Cc1cccc(NC(=O)CC#N)c1Cl | – | – | – | – | – | > 100 | – | – | – | – | – | > 100 | – | > 100 µM | > 100 | > 100 | > 100 |
| CCCN1CCN(c2ccc3nc(-c4ccc5nc(-c6ccc(OCC)c(OCC)c6)[nH]c5c4)[nH]c3c2)CC1 | 0.956 µM | 3.2 µM | 0.381 µM | 1.92 | 0.0647 | 1.19 | 0.538 µM | 1.82 µM | 0.533 | 1.16 | 1.6 µM | 6.1 | 0.986 µM | 2.33 µM | – | – | – |
| COc1ccc(C#CCC(OC2OC(CO)C(O)C(O)C2O)C(O)c2ccc(OC)c(OC)c2)cc1OC (stereo not given) | – | > 100 µM | – | – | – | > 100 | – | > 100 µM | – | > 100 | – | > 100 | – | > 100 µM | > 100 | > 100 | – |
| COc1ccc(CC2C3=C(CCCC3)CCN2C)cc1 (stereo not given) | – | > 100 µM | – | > 100 | – | > 100 | – | > 100 µM | – | > 100 | – | > 100 | – | > 100 µM | – | – | – |
| CCC/C(=N\NC(=O)c1cc2ccccc2cc1O)C(CC)C(=O)CCC(=O)N(Cc1ccccc1)Cc1ccccc1 (stereo not given) | – | > 100 µM | – | – | – | > 100 | – | > 100 µM | – | > 100 | – | > 100 | – | > 100 µM | > 100 | > 100 | 48.6 |
| O=C(/C=C/c1cccnc1)c1ccccc1O | 17.5 µM | 45.5 µM | 21.9 µM | 66.8 | 22.2 | 62.9 | 15.2 µM | 31.4 µM | 16.2 | 30 | 26.9 µM | 97.6 | 17.2 µM | 31.8 µM | – | – | – |
| O=C(c1ccc2c3c(ccc(C(=O)C(F)(F)F)c13)CC2)C(F)(F)F | – | > 100 µM | – | – | – | > 100 | – | > 100 µM | – | > 100 | – | > 100 | – | > 100 µM | > 100 | > 100 | > 100 |
| Cc1cc2c(cc1C)[n+](=O)c(C(=O)/C=C/c1ccccc1Cl)c(C)n2[O-] | – | 58.9 µM | – | – | – | 94.5 | – | 96.7 µM | – | 34.2 | – | 95.9 | – | 30.3 µM | 34.6 | > 100 | > 100 |
| CSc1nc2c(c(=O)[nH]1)C(c1ccc(Cl)cc1)C1=C(N2)/C(=C/c2ccc(Cl)cc2)CNC1 (stereo not given) | 2.38 µM | 5.11 µM | 1.99 µM | 5.1 | 4.41 | 19.2 | 2.68 µM | 11.3 µM | 1.96 | 3.57 | 2.76 µM | – | 2.02 µM | 4.46 µM | – | – | – |
| CC(=O)c1ccc(NCN2C(=O)c3ccccc3C2=O)cc1 | – | > 100 µM | – | > 100 | – | > 100 | – | > 100 µM | – | > 100 | – | > 100 | – | > 100 µM | – | – | – |
| Cc1ccc(C2=C(c3ccccc3)C(O)(c3ccc(C)cc3)C(c3ccccc3)=C2c2ccc(C)cc2)cc1 | – | > 100 µM | – | – | – | > 100 | – | > 100 µM | – | > 100 | – | > 100 | – | > 100 µM | > 100 | > 100 | > 100 |
| CC(=O)OCC1OC(n2c(-c3ccccc3)c(C)c(C)c(C#N)c2=S)C(OC(C)=O)C(OC(C)=O)C1OC(C)=O (stereo not given) | 14.3 µM and > 100 µM | 40.4 µM and > 100 µM | – | > 100 | – | > 100 | – | > 100 µM | – | > 100 | 18.3 µM and 93.3 µM | > 100 | 6.84 µM and 23.2 µM | 19.3 µM and 56.1 µM | – | – | – |
| CCC(/C(=N\Nc1c(Cl)cc(Cl)cc1Cl)c1ccccc1)n1ccnc1C (stereo not given) | – | – | – | – | – | 24.8 | – | 29.2 µM | – | 15.7 | – | 47.2 | – | 25.6 µM | 25.8 | 17.5 | 29.7 |
| O=C1c2ccccc2C(=O)c2c1ccc1c2OCO1 | – | > 100 µM | – | > 100 | – | > 100 | – | > 100 µM | – | > 100 | – | > 100 | – | > 100 µM | – | – | – |

Source: PubChem BioAssay (NCI)
